Experimental data: US20250339396A1 (COSMAS THERAPEUTICS DEVELOPMENT INC., priority 2021, published 2025)

How the values were obtained:
[1] = Stability of Prodrug D in solvents by HPLC; type: physicochemical
Method: For this test, we used HPLC with different solvent systems. […] Therefore, after initial assessment, this method was used for the remaining tests. Prodrug D or UCM924 (comparator) were dissolved in the different solvents listed in the table below and, after the waiting period indicated, HPLC tests were carried out according to the above. The results are shown in the table below, in which the percentages represent the quantity of prodrug D or UCM924 detected in the samples.

neuropathic (SNI) rats = assay: Mechanical allodynia (von Frey, 50% paw withdrawal threshold) after spared nerve injury (SNI); type: in vivo, rat; conditions: 50 mg/kg per os
Method: Experiments were performed in male Sprague-Dawley rats (body weight: 250-300 g; Charles River Laboratories, St. Constant, QC, Canada) and adult male C57BL mice (body weight: 25-30 g; inbred). All animals were housed in small groups at a constant temperature of 22° C., with food and water provided ad libitum, and maintained under a 12 h light/dark cycle (lights on at 7:00 AM; lights off at 7:00 PM). All experimental procedures were conducted in accordance with the guidelines of the Canadian Council on Animal Care, and the protocols were approved by the Animal Care Committee at McGill University.
The different prodrug compounds as synthesized in Example 2 were tested and compared with Gabapentin (150 mg/kg, purchased from Sigma Aldrich, US). Prodrug was dissolved in saline, water, or a vehicle composed of 40% PEG400 and 60% water. Gabapentin was dissolved in a vehicle composed of 40% PEG400 and 60% water. All drugs (doses see the procedure descriptions below) were administrated per os (gavage) through a curved feeding tube (20 G for rats and 22 G for mice) at the beginning of the experiment unless otherwise specified. The dose of prodrug was chosen based on its pharmacokinetic properties, and the doses of Gabapentin were chosen from literature (Lopez-Canul, Palazzo et al. 2015).
Spared nerve injury was performed according to the method of (Decosterd I and Woolf CJ, 2000), see also Lopez-Canul et al., 2015. Rats and mice were anesthetized with isoflurane. The sciatic nerve was exposed at mid-thigh level distal to the trifurcation and freed of connective tissue; the three peripheral branches (sural, common peroneal, and tibial nerves) of the sciatic nerve were exposed without stretching nerve structures. Both tibial and common peroneal nerves were ligated and transected together. Tactile allodynia was absent in healthy (pre-surgery) and sham rats, and the mechanical withdrawal threshold in rats before SNI (pre-surgery) or sham was very close to the cutoff of dynamic plantar aesthesiometer (30 g) (Ugo Basile, Varese, Italy).
On day 14 after surgery, individual rats were placed in a test chamber (clear plastic wire mesh-bottomed cage) and allowed to acclimatize for 30 to 40 minutes. Von Frey filaments (Stoelting, Wood Dale, IL) were used to measure the 50% paw withdrawal threshold using the up-and-down method reported by {Chaplan, 1994 #399}. […] Lifting of the paw indicated a positive response and prompted the use of the […], whereas absence of paw withdrawal after 5 seconds indicated a negative response and prompted the next filament of increasing weight. This paradigm continued for 4 more measurements after the initial change of the behavioral response or until 5 consecutive negative or 4 consecutive positive responses. Based on observations on normal, unoperated, and sham-operated rats, the cutoff value of 15 g was selected as the upper limit for testing because stiffer hairs tended to raise the entire limb rather than to buckle, substantially changing the nature of the stimulus. The resulting scores were used to calculate the 50% response threshold using the formula proposed by Dixon. Allodynia was considered to be present when paw withdrawal thresholds were <4 g, and drugs raising this threshold were considered antiallodynic {Lopez-Canul, 2015}. Accordingly, all nerve ligated rats were verified to be allodynic, responding to a stimulus of <4 g. Rats without mechanical allodynia were excluded. After the determination of the basal response, allodynia was assessed at baseline, 0.5, 1, 1.5, 2, 2.5, 3, 4, 5, 6, 7, and 8 hours post-administration for each treatment described below. Groups of 5 to 6 rats per treatment were used, with each animal being used for 1 treatment only. […]

CC(=O)N(CCN(c1ccc(F)cc1)c1cccc(Br)c1)C(=O)OCOC(=O)CN.Cl [Prodrug D, ((acetyl(2-((3-bromophenyl)(4-fluorophenyl)amino)ethyl)carbamoyl)oxy)methyl 2-aminoacetate hydrochloride]
quantity detected in the sample by HPLC ([1]; HPLC Method 1, H2O, 0 h, pH ~7.0): 90.15%
quantity detected in the sample by HPLC ([1]; HPLC Method 2, 1N HCl, overnight at rt, pH ~0): 85.21%
quantity detected in the sample by HPLC ([1]; HPLC Method 2, 40% PEG400:60% H2O, overnight at rt, pH ~7.0): 58.17%
quantity detected in the sample by HPLC ([1]; HPLC Method 2, H2O, 0 h, pH ~7.0): 93.92%
quantity detected in the sample by HPLC ([1]; HPLC Method 2, H2O, overnight at rt, pH ~7.0): 18.28%
quantity detected in the sample by HPLC ([1]; HPLC Method 2, Saturated NaHCO3aq, 2 h at rt, pH ~8.5): 27.21%
stability at different PH ([1]; rank order): acidic>neutral>basic
AUC of withdrawal threshold vs. UCM924, t-test p (neuropathic (SNI) rats): 0.015
Area Under the Curve (AUC) of withdrawal threshold vs. vehicle, Bonferroni p (FIG. 1B) (neuropathic (SNI) rats): < 0.0001
withdrawal threshold over time vs. vehicle (two-way ANOVA, FIG. 1A) (neuropathic (SNI) rats; 0.5-8 h): significantly increased the withdrawal threshold
withdrawal threshold vs. vehicle, Bonferroni post-hoc p (neuropathic (SNI) rats; after 3, 4, 5 and 6 hours): < 0.0001
withdrawal threshold vs. vehicle, Bonferroni post-hoc p (neuropathic (SNI) rats; after 1 hour): 0.05
withdrawal threshold vs. precursor UCM924, Bonferroni post-hoc p (neuropathic (SNI) rats; hour 5): < 0.001
withdrawal threshold vs. precursor UCM924, Bonferroni post-hoc p (neuropathic (SNI) rats; hour 6): < 0.0001
